Results reported in US20160207930A1 (LEO PHARMA A/S, priority 2013, published 2016).

How the values were obtained:
[1] = Hepatic intrinsic clearance following incubation in human liver microsomes; type: in vitro ADME; settings: 0.5 μM test compound, NADPH, 0-30 min, scaled to g liver
Protocol: Hepatic Extraction Ratio from Hepatic Intrinsic Clearance Following Incubation in Human Liver Microsomes
The general procedure consists of an automated incubation system and LC-MS/MS analysis with human liver microsomes. Human liver microsomes are thawed rapidly in a waterbath at 37° C. and kept on ice until use. The human liver microsomes are diluted with 50 mM potassium phosphate buffer pH 7.4 to a protein concentration of 0.55 mg/mL. Test compounds and positive controls (Verapamil and Dextromethorphan, positive controls for CYP3A4 for CYP2D6 isoforms, respectively) are dissolved in methanol (or other appropriate solvent, if necessary) in order to obtain a 5 mM solution which is further diluted to the concentration of 50 μM. The stock solutions are prepared immediately before the test.
5 μL of 50 μM test compounds and controls are added to 445 μL-of the 0.55 mg/mL microsomes solution and the incubation mixture are pre-warmed at 37° C. for 5 minutes. The incubation reactions are initiated by adding 50 μL of pre-warmed NADPH regenerating system to the incubation mixtures. 50 μL-aliquots will be taken from the incubation mixtures at: 0, 3, 6, 9, 15 and 30 minutes and the reactions are stopped by adding 100 μL of ACN containing Rolipram, used as generic Internal Standard (IS). Samples are then diluted with 120 μL of Milli-Q water and centrifuged at 3000 rpm for 10 minutes, prior the LC-MS/MS analysis.
The integrated peak areas for test compounds at the selected time points are divided by the respective peak areas of the IS and the percent of parent remaining is calculated by normalizing the peak area ratio of parent to IS at 0 min. Observed rate constant (kobs) for parent degradation is calculated by determining the slope of the line of the graph of the natural log of percentage parent remaining versus time of incubation. From the rate of depletion (min−1) and volume of the incubation (mL), clearance is estimated. This is scaled for the protein in the incubation relative to that in the intact liver, for all species (mL/min/g liver).
Values for the Human in vitro Clint are expressed as mL/min/g liver.
Assuming a liver weight of 25.7 g/kg and a liver blood flow of 20.7 mL/min/kg, the hepatic extraction ratio, Eh, can be derived from the Human in vitro Clint:
E.g. a Human in vitro Clint of 2.4 mL/min/g liver corresponds to a hepatic extraction ratio of 75%.
Some compounds of the present invention were tested according to example 101.

NK1 Receptor = target: T1, NK1 Receptor (Homo sapiens, UniProt P25103); assay: NK1 receptor mediated intracellular [Ca2+] mobilization in U251 MG cells using FLIPR; type: cell-based; settings: antagonism of Substance P (EC80), Fluo-4, read-out: NK1R mediated intracellular [Ca^2+] mobilization IC 50
T1 construct: Measurement of NK1 Receptor Mediated Intracellular [Ca^2+]; Mobilization in U251 MG Cells Using FLIPR; endogenous in cells; host or cells: U251 MG cells
T1 sequence (P25103 whole entry): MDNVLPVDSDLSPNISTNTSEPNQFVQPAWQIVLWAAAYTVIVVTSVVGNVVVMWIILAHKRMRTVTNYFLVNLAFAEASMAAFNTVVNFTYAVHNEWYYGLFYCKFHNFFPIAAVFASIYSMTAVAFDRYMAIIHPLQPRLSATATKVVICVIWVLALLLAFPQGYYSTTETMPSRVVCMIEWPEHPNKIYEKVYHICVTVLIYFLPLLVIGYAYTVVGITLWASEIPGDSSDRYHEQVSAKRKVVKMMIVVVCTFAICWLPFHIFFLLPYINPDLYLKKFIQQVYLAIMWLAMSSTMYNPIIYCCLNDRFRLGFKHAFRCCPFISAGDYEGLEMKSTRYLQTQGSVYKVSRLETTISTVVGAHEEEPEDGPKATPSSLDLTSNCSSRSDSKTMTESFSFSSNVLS
Protocol: Measurement of NK1 Receptor Mediated Intracellular [Ca^2+] Mobilization in U251 MG Cells Using FLIPR
U251 MG cells were seeded into black walled clear-bottom 384-well plates (Greiner Bio-One GmbH, Frickenhausen, Germany) at a density of 15,000 cells/well in 50 μl culture medium and cultured overnight in a 37° C. 5% CO2 incubator. The cells were then loaded with the calcium sensitive dye Fluo-4 (Invitrogen) at 1 μM in buffer, containing 0.04% Pluronic F-127 (Sigma-Aldrich), and 2.5 mM probenecid (Sigma-Aldrich) for 60 min in a humidified atmosphere of 5% CO2. Thereafter, cells were washed three times in washing buffer containing 20 mM HEPES and 2.5 mM probenecid pH 7.3. Serial dilutions of test compounds in assay buffer containing 2% dimethyl sulfoxide (final concentration in the cell plate is 0.5% DMSO) and/or agonist were then automatically pipetted into each test well, and the peak fluorescence intensity was recorded (lex, 488 nm; lem, 540 nm) by the FLIPR instrument (Molecular Devices) for approximately 5 min. To measure antagonist potency, cell plates were first incubated with the test compound and intracellular fluorescence recorded for 5 minutes to check a potential agonist effect of the test compound. Cell plates were quickly removed from the FLIPR instrument and incubated for additional 10 minutes at 37° C. before being moved back to the FLIPR instrument for Substance P (EC80) addition. The response was measured as the peak relative fluorescence change after agonist addition.
Compound relative %-effect was normalized to the maximal response evoked by 100 nM Aprepitant in presence of the EC80 of Substance P and the antagonist potency determined by non-linear regression using GraphPad Prism (version 5) or the four-parameter logistic model in XLfit (IDBS, Guilford, UK) for Microsoft Excel (Microsoft, Redmond, Wash.). The IC50 value is defined as the molar concentration of a test compound that produces a response midway between the fitted top and the fitted bottom. pIC50=−log IC50
Formula is listed as follows:
Fit (% Effect calculated)=(A+((B−A)/(1+((C/X)̂D)))) • A: bottom value • B: top value • C: test compound concentration • X: Relative IC50 • D: Hill slope coefficient
Ref: Sullivan E, Tucker E M, and Dale I L. Measurement of [Ca^2+] using the Fluorometric Imaging Plate Reader (FLIPR). Methods Mol Biol 114:125-133, 1999.
Compounds of the present invention were tested according to example 100.

Row | SMILES | Human in vitro Clint [1] [mL/min/g] | IC50 (NK1 Receptor) [nM]
1 | Cc1cc([C@@H](C)N(C)C(=O)N2CCN3C(=O)CCC3C2c2ccc(C)cc2C)cc(C(F)(F)F)c1 (single isomer, unassigned) [Compound 5] | >200 | 0.437
2 | Cc1cc([C@@H](C)N(C)C(=O)N2CCN3C(=O)C(CCO)(CCO)CC3C2c2ccc(F)cc2C)cc(C(F)(F)F)c1 (single isomer, unassigned) [Compound 12] | >200 | 0.622
3 | COc1ccc(C2C3CCC(=O)N3CCN2C(=O)N(C)[C@H](C)c2cc(C(F)(F)F)cc(C(F)(F)F)c2)c(C)c1 (single isomer, unassigned) [Compound 18] | >200 | 1.15
4 | COc1ccc(C2C3CCC(=O)N3CCN2C(=O)N(C)[C@H](C)c2cc(C(F)(F)F)cc(C(F)(F)F)c2)c(C)c1 (single isomer, unassigned) [Compound 19] | >200 | 38.8
5 | CCc1cc([C@@H](C)N(C)C(=O)N2CCN3C(=O)CC[C@H]3[C@@H]2c2ccccc2CC)cc(C(F)(F)F)c1 (single isomer, unassigned) [Compound 70] | >200 | 0.94
6 | CCc1cc([C@@H](C)N(C)C(=O)N2CCN3C(=O)CC[C@H]3[C@@H]2c2ccccc2CC)cc(C(F)(F)F)c1 (single isomer, unassigned) [Compound 71] | >200 | 49
7 | CCc1cc([C@@H](C)N(C)C(=O)N2CCN3C(=O)C(CCO)(CCO)CC3C2c2ccc(OC)cc2C)cc(C(F)(F)F)c1 (stereo partly drawn) [Compound 16] | >200 | 0.243
8 | Cc1cc(F)ccc1[C@H]1[C@@H]2CCC(=O)N2CCN1C(=O)N(C)[C@H](C)c1cc(C(F)(F)F)cc(C(F)(F)F)c1 [Compound 20, (1S,8aS)—N—((R)-1-(3,5-bis(trifluoromethyl)phenyl)ethyl)-1-(4-fluoro-2-methylphenyl)-N-methyl-6-oxohexahydropyrrolo[1,2-a]pyrazine-2(1H)-carboxamide] | 40 | 0.137
9 | Cc1cc(F)ccc1[C@H]1[C@@H]2CCC(=O)N2CCN1C(=O)N(C)[C@H](C)c1cc(C(C)C)cc(C(F)(F)F)c1 [Compound 22, (1S,8aS)-1-(4-fluoro-2-methylphenyl)-N-(1-(3-isopropyl-5-(trifluoromethyl)phenyl)ethyl)-N-methyl-6-oxohexahydropyrrolo[1,2-a]pyrazine-2(1H)-carboxamide] | >200 | 0.197
10 | CCc1cc([C@@H](C)N(C)C(=O)N2CCN3C(=O)CC[C@H]3[C@@H]2c2ccc(F)cc2C)cc(C(F)(F)F)c1 [Compound 23, (1S,8aS)—N—((R)-1-(3-ethyl-5-(trifluoromethyl)phenyl)ethyl)-1-(4-fluoro-2-methylphenyl)-N-methyl-6-oxohexahydropyrrolo[1,2-a]pyrazine-2(1H)-carboxamide] | 78 | 0.037
11 | CCc1cc([C@@H](C)N(C)C(=O)N2CCN3C(=O)C(CCO)(CCO)C[C@H]3[C@@H]2c2ccc(F)cc2C)cc(C(F)(F)F)c1 [Compound 24, (1S,8aS)—N—((R)-1-(3-ethyl-5-(trifluoromethyl)phenyl)ethyl)-1-(4-fluoro-2-methylphenyl)-7,7-bis(2-hydroxyethyl)-N-methyl-6-oxohexahydropyrrolo[1,2-a]pyrazine-2(1H)-carboxamide] | >200 | 0.08

More lines, in order of falling IC50 (NK1 Receptor), values ahead:

Row | Human in vitro Clint [1] [mL/min/g] | IC50 (NK1 Receptor) [nM] | SMILES
12 | >200 | 11 | CCc1ccccc1[C@H]1[C@@H]2CCC(=O)N2CCN1C(=O)N(C)[C@H](C)c1cc(C(F)(F)F)cc(C(F)(F)F)c1 (single isomer, unassigned) [Compound 69]
13 | 104 | 2.54 | Cc1cc(F)ccc1C1C2CC(CCO)(CCO)C(=O)N2CCN1C(=O)N(C)[C@H](C)c1cc(C(F)(F)F)cc(C(F)(F)F)c1 (single isomer, unassigned) [Compound 15]
14 | >200 | 1.59 | Cc1ccc(C2C3CC(CCO)(CCO)C(=O)N3CCN2C(=O)N(C)[C@H](C)c2cc(C(F)(F)F)cc(C(F)(F)F)c2)c(C)c1 (single isomer, unassigned) [Compound 6]
15 | >200 | 0.799 | COc1ccc([C@H]2[C@@H]3CC(CCO)(CCO)C(=O)N3CCN2C(=O)N(C)[C@H](C)c2cc(C)cc(C(F)(F)F)c2)c(C)c1 [Compound 17, (1S,8aS)-7,7-bis(2-hydroxyethyl)-1-(4-methoxy-2-methylphenyl)-N-methyl-N—((R)-1-(3-methyl-5-(trifluoromethyl)phenyl)ethyl)-6-oxohexahydropyrrolo[1,2-a]pyrazine-2(1H)-carboxamide]
16 | >200 | 0.613 | Cc1cc(F)ccc1C1C2CC(CCO)(CCO)C(=O)N2CCN1C(=O)N(C)[C@H](C)c1cc(Cl)cc(C(F)(F)F)c1 (single isomer, unassigned) [Compound 11]
17 | >200 | 0.094 | Cc1cc(F)ccc1C1C2CC(CCO)(CCO)C(=O)N2CCN1C(=O)N(C)[C@H](C)c1cc(C(F)(F)F)cc(C(F)(F)F)c1 (single isomer, unassigned) [Compound 14]
18 | 36 | 0.083 | Cc1cc([C@@H](C)N(C)C(=O)N2CCN3C(=O)CC[C@H]3[C@@H]2c2ccc(F)cc2C)cc(C(F)(F)F)c1 [Compound 21, (1S,8aS)-1-(4-fluoro-2-methylphenyl)-N-methyl-N—((R)-1-(3-methyl-5-(trifluoromethyl)phenyl)ethyl)-6-oxohexahydropyrrolo[1,2-a]pyrazine-2(1H)-carboxamide]
19 | >200 | 0.08 | Cc1ccc(C2C3CC(CCO)(CCO)C(=O)N3CCN2C(=O)N(C)[C@H](C)c2cc(C(F)(F)F)cc(C(F)(F)F)c2)c(C)c1 (single isomer, unassigned) [Compound 7]
20 | >200 | 0.063 | Cc1cc(F)ccc1C1C2CC(CCO)(CCO)C(=O)N2CCN1C(=O)N(C)[C@H](C)c1cc(Cl)cc(C(F)(F)F)c1 (single isomer, unassigned) [Compound 10]
21 | >200 | 0.034 | Cc1cc([C@@H](C)N(C)C(=O)N2CCN3C(=O)C(CCO)(CCO)CC3C2c2ccc(F)cc2C)cc(C(F)(F)F)c1 (single isomer, unassigned) [Compound 13]
